Source: patent US10239876B2, “Triaza-spirodecanones as DDR1 inhibitors” (Hoffmann La-Roche Inc., priority 2015, dated 2019)

Biological target: intracellular domain of the DDR1 protein (Homo sapiens (Human), UniProt Q08345)
Assay: In vitro binding competition assay for DDR1 (Eu-labeled anti-GST antibody / tracer FRET)
Conditions: recombinant GST-tagged protein, one hour incubation at room temperature
From the text: This assay is based on the intracellular domain of the DDR1 protein which contains the kinase active site. The recombinant protein additionally carries a GST-tag that can be recognized by an Eu-labeled anti-GST antibody. […] Excitation energy absorbed by the Europium complex (350 nm flash light or pulsed laser) is transferred to a suitable fluorescent dye, if it is in close proximity. Compounds binding competitively with the tracer molecule will displace the bound tracer molecules and reduce the FRET signal in a dose dependent manner. Due to the long lifetime of the Eu excited state, the emission of the donor and the acceptor can be measured in time-gated mode such that most of the intrinsic fluorescence contributions have already decayed. […] This sensitive detection method enables protein concentrations below 20 nM.
Protein, tracer and labeled antibody were obtained from commercial sources. […] Dose response curves were generated from 16 compound dilutions in DMSO as solvent compound dilutions, a solution containing protein and labeled antibody, and a solution containing the tracer which is added in the last step. The fluorescence of donor and acceptor were then measured after one hour incubation at room temperature. Every assay run was quality-controlled with dose response curves for two reference compounds.

Sequence of intracellular domain of the DDR1 protein (Q08345 439-913): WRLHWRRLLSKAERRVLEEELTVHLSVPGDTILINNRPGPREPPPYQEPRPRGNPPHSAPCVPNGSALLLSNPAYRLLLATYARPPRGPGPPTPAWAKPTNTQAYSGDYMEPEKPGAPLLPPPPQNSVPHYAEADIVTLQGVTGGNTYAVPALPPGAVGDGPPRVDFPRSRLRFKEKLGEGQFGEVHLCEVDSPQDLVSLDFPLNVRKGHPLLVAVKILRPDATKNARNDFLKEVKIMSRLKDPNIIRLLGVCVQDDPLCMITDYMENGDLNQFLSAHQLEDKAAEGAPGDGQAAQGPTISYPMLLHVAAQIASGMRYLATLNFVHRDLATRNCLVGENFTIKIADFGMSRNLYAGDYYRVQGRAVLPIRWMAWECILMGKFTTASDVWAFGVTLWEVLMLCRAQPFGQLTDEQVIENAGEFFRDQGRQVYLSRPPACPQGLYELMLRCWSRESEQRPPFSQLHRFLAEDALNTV

Compound `O=C(CN1CN(c2ccccc2)C2(CCN(C(=O)c3ccc4[nH]ncc4c3)CC2)C1=O)NCC(F)(F)F` [Example 7, 2-(8-(1H-Indazole-5-carbonyl)-4-oxo-1-phenyl-1,3,8-triazaspiro[4.5]decan-3-yl)-N-(2,2,2-trifluoroethyl)acetamide] has an IC50 of 15.5 nM.

`O=C(CN1CN(c2ccccc2)C2(CCN(C(=O)c3ccc4[nH]ncc4n3)CC2)C1=O)NCC(F)(F)F` [Example 91, 2-(4-Oxo-1-phenyl-8-(1H-pyrazolo[4,3-b]pyridine-5-carbonyl)-1,3,8-triazaspiro[4.5]decan-3-yl)-N-(2,2,2-trifluoroethyl)acetamide] was tested, and the IC50 was 19.4 nM.
